Several values for one entry are separate records, joined by “and”; a condition that tells them apart may be missing. Equal values may be shown once. Read-outs that look alike come from different tables or passages of the source.
Columns and labels:
Format in all cases: cell-based
[1] = biological target: T1, hVDR (Vitamin D receptor) (Homo sapiens, UniProt P11473); assay: Crossreactive receptor transcriptional assay (Gal4 hybrid)
T1 construct: 90-427; expressed in transfected cells; host or cells: CHO cells, transient transfection
T1 sequence (P11473 90-427): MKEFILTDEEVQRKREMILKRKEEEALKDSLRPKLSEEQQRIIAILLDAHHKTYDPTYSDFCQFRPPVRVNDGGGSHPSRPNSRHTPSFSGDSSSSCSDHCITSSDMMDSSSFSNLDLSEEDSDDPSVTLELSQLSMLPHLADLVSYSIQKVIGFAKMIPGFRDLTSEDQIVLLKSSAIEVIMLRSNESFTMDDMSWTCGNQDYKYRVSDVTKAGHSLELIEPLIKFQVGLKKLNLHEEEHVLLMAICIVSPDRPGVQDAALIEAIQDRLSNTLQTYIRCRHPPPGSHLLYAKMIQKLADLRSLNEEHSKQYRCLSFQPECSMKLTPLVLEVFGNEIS
Protocol: (§1) A firefly luciferase reporter gene for Gal4 DBD hybrid receptors, such as Gal4-RORγ, contains five copies of the Gal4 17-mer response element in its promoter and the coding sequence for firefly luciferase (pG5-luc, Promega). CHO (Chinese Hamster Ovary) cells were cultured in Ham's F12 medium supplemented with 10% fetal calf serum (Gemini Biologicals), 10 μg/ml penicillin and streptomycin, and were maintained in a humidified 37° C. incubator (Thermo Electron, Steri-Cycle) with 5% CO2. 24 hours before transfection, cells were plated in T175 flasks (5×10^6 cells/flask) or T75 flasks (1.7×10^6 cells/flask).
Plates are maintained at 37° C. in a humidified atmosphere with 7% CO2 overnight. […] Approximately 40 hours later, cytotoxicity in the assay well was characterized by addition of the dye resazurin (O'Brien, Wilson et al. 2000) to a final concentration of 3 μM. […] Percent viability was determined as 2 hour fluorescence, minus background at t=0 hours, normalized to DMSO controls. For detection of luciferase activity, media was removed from plates after the measurement of resazurin conversion, and SteadyLite luciferase reagent (Perkin-Elmer) was added (30 μl/well). Luminescence is detected with a Victor 2-V plate reader (Perkin-Elmer) and normalized to luciferase activity of DMSO control wells alone.

[2] = biological target: T2, mLXRα (Liver X receptor alpha) (Mus musculus, UniProt Q9Z0Y9); assay: Transcriptional assay of LXRα (Gal4-LXRα hybrid)
T2 construct: 172-455; expressed in transfected cells; host or cells: CHO cells, transient transfection
T2 sequence (Q9Z0Y9 172-445 limits assumed): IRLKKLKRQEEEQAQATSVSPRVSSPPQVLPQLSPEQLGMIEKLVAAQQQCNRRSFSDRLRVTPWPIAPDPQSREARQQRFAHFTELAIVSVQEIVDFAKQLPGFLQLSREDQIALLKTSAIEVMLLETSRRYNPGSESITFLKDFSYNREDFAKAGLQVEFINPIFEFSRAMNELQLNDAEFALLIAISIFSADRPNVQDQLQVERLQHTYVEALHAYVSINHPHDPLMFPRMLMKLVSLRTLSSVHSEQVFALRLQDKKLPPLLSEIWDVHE
Protocol: as §1, with “cells/flask). Transient transfection of CHO cells was performed using TransIT-CHO reagents (Minis, Madison, Wis.) with a mixing ratio of 2:6:1 between plasmid DNA (in μg), TransIT-CHO (in μl) and CHO-mojo (in μl).” for “cells/flask).”
(§2) Plates are maintained at 37° C. in a humidified atmosphere with 7% CO2 overnight. Four (4) hours after cell seeding, compounds dissolved in DMSO at 10 mM were added to cells at final concentrations of 20 micromolar (μM) to 20 nanomolar (nM) in 0.2% DMSO in triplicate plates. Approximately 40 hours later, cytotoxicity in the assay well was characterized by addition of the dye resazurin (O'Brien, Wilson et al. 2000) to a final concentration of 3 μM. […] Percent viability was determined as 2 hour fluorescence, minus background at t=0 hours, normalized to DMSO controls. For detection of luciferase activity, media was removed from plates after the measurement of resazurin conversion, and SteadyLite luciferase reagent (Perkin-Elmer) was added (30 μl/well). Luminescence is detected with a Victor 2-V plate reader (Perkin-Elmer) and normalized to luciferase activity of DMSO control wells alone.
A transcriptional assay for LXRα, using a Gal4-LXRα hybrid, was implemented in order to compare RORγ ligand potencies. In addition to LXRα, transcriptional assays for a number of other major nuclear receptors were developed.

mRORγ = biological target: T3, mRORγ (Mus musculus, UniProt P51450); assay: Transcriptional assay, Gal4-mRORγ with luciferase reporter in CHO cells
T3 construct: expressed in transfected cells; host or cells: CHO cells, transient transfection
Protocol: The complete Gal4-mRORγ nucleotide sequence is shown below:
as §1, with “cells/flask). Transient transfection of CHO cells was performed using TransIT-CHO reagents (Minis, Madison, Wis.) with a mixing ratio of 2:6:1 between plasmid DNA (in μg), TransIT-CHO (in μl) and CHO-mojo (in μl).” for “cells/flask).”
as §2

[3] = Table 6, read-out: Potency (EC50) at hVDR
[4] = Table 6, read-out: Potency (EC50) at mLXRα
[5] = read-out: EC50 in the transcriptional assay for RORγ
[6] = Table 4A, medians of two or more assays, unit inferred, read-out: EC50 Transcriptional

T3 sequence (P51450 with tags, fused parts or gaps): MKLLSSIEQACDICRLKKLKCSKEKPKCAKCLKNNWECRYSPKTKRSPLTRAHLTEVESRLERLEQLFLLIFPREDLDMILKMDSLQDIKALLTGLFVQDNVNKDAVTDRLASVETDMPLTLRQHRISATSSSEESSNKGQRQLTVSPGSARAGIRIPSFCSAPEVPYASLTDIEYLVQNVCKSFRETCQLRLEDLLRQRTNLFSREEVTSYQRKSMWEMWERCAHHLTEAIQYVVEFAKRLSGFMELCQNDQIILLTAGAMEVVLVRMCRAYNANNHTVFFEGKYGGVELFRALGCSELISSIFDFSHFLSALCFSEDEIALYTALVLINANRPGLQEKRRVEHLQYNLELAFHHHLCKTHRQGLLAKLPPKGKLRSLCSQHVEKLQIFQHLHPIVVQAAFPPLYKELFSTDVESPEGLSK

| SMILES | EC50 [1, 3] | EC50 [2, 4] | EC50 (mRORγ; [5]) | EC50 (mRORγ; [6]) | other results |
| --- | --- | --- | --- | --- | --- |
| COC(C)CCC(C)C1CCC2C3CC(O)C4CC(O)CCC4(C)C3CCC12C (stereo not shown) [OR-12872, 17-(4-Methoxy-1-methyl-pentyl)-10,13-dimethyl-hexadecahydro-cyclopenta[a]phenanthrene-3,6-diol] | > 10 µM | > 10 µM | – | – | EC50 (mRORγ; Table 2, agonists, antagonist OR-376 (1.5 μM) added to reduce basal transcriptional activity, read-out: EC50 in micromolar at mRORγ Transcriptional): 0.44 µM |
| CCN(c1ccc(C(O)(C(F)(F)F)C(F)(F)F)cc1)S(=O)(=O)c1ccc([N+](=O)[O-])cc1 [OR-1050, N-Ethyl-4-nitro-N-[4-(2,2,2-trifluoro-1-hydroxy-1-trifluoromethyl-ethyl)-phenyl]-benzenesulfonamide] | > 10 µM | 1 to 10 µM | < 1 µM and 0.3 µM | – | Emax [2]: > 80%; potency in repression of RORγ transcription relative to induction of LXR transcription [2]: approximately 5 fold; specificity for RORγ versus LXRα ([2]; comparison of transcriptional assays for RORγ and LXRα (Table 7)): more specific for RORγ than LXRα; EC50 ([2]; read-out: EC50 at LXRα in transcriptional assays): 1.5 µM; EC50 (mRORγ; Table 1, antagonists, inhibition of basal Gal4-mRORγ transcription in CHO cells, read-out: Assay EC50 in micromolar at mRORγ Transcriptional): 0.26 µM; EC50 (mRORγ; Table 7, taken from Table 1, read-out: Assay EC50 in micromolar at mRORγ Transcriptional): 0.26 µM |
| CCn1c(CNc2ccc(Cl)cc2)nnc1SCC(=O)Nc1cccc2ccccc12 [OR-133008, 2-{5-[(4-Chloro-phenylamino)-methyl]-4-ethyl-4H-[1,2,4]triazol-3-ylsulfanyl}-N-naphthalen-1-yl-acetamide] | > 10 µM | > 10 µM | – | 1.46 µM | – |
| CC(=O)O[C@H]1CC[C@@]2(C)C(CC[C@]3(C)C2C(=O)C=C2C4[C@@H](C)[C@H](C)CC[C@]4(C(=O)O)CC[C@]23C)C1(C)C (stereo in doubt) [OR-13571, 10-Acetoxy-1,2,6a,6b,9,9,12a-heptamethyl-13-oxo-1,3,4,5,6,6a,6b,7,8,8a,9,10,11,12,12a,12b,13,14b-octadecahydro-2H-picene-4a-carboxylic acid] | > 10 µM | > 10 µM | < 1 µM | 0.27 µM | – |
| C[C@@H]1CC[C@@]2(OC1)O[C@H]1C[C@H]3[C@@H]4CC[C@H]5C[C@@H](O)CC[C@]5(C)[C@H]4C[C@@H](O)[C@]3(C)[C@H]1[C@@H]2C [OR-885, 5α,20α, 22α, 25D-SPIROSTAN-3β, 12β-DIOL] | – | – | < 1 µM | – | EC50 [1]: > 10 µM; EC50 [2]: > 10 µM; EC50 (mRORγ; Table 3, steroidal antagonists, read-out: Assay EC50 in micromolar transcriptional): 0.2 µM |
| O=S(=O)(c1ccccc1)N(CC(F)(F)F)c1ccc(C(O)(C(F)(F)F)C(F)(F)F)cc1 [Compound T0901317, N-(2,2,2-Trifluoro-ethyl)-N-[4-(2,2,2-trifluoro-1-hydroxy-1-trifluoromethyl-ethyl)-phenyl]-benzenesulfonamide, reference compound] | > 10 µM | 0.1 to 1 µM | – | – | Emax [2]: 100%; EC50 ([2]; Table 7, no unit printed for this column (b114 gives 1.5 μM for OR-1050), read-out: Transcriptional Assay of LXRα EC50): 0.14 µM; Efficacy at mLXRα ([2]; activity of standard ligand at 20 μM): 120X |
| COc1c(C=NNc2nc(N3CCCCC3)nc(N3CCCCC3)n2)cccc1[N+](=O)[O-] [OR-2161, N-(4,6-Di-piperidin-1-yl-[1,3,5]triazin-2-yl)-N′-(2-methoxy-3-nitro-benzylidene)-hydrazine] | > 10 µM | > 10 µM | – | 0.33 µM | – |

— patent US8389739B1, “Modulators of retinoid-related orphan receptor gamma” (Orphagen Pharmaceuticals, priority 2006, dated 2013)
